These results are taken from the RepoRT retention time repository (doi:10.1039/c4mb00346b).

A short description of the data set: HILIC, Merck SeQuant ZIC-pHILIC, 150 × 2.1 mm, 5 µm, 0.1 mL/min, estimated dead time 3.3 min; A: acetonitrile; B: water + 10 mM ammonium carbonate; gradient (min/%B) 0/20 30/80. The following applies: stereoisomer not certain.
As for `C[NH+](C)C(Cc1cnc[nH]1)C(=O)[O-]` (stereo not given) [Dimethyl-histidine], the LC retention time is 9.7 min.

On to `Nc1ccn(C2OC(COP(=O)(O)OP(=O)(O)O)C(O)C2O)c(=O)n1` (stereo not given) [CDP], for which the LC retention time was 14.7 min. Take `Nc1nc2c(ncn2C2OC(COP(=O)(O)O)C(O)C2O)c(=O)[nH]1` (stereo not given) [GMP]: the LC retention time is 14.1 min. `CSc1ncc(CC(C(=O)[O-])[N+](C)(C)C)[nH]1` (stereo not given) [S-Methyl-ergothioneine]: the LC retention time is 7.9 min.

In the case of `CC(=O)NCCCCC([NH3+])C(=O)[O-]` (stereo not given) [N6-Acetyl-lysine], the LC retention time was 10.5 min. Turning to `O=c1[nH]c(=O)c2[nH]c(=O)[nH]c2[nH]1` [Urate], the LC retention time was 10.7 min. The result for `CC(=O)NC(CC(=O)O)C(=O)O` (stereo not given) [N-Acetyl-aspartate] reads 12.5 min; that for `C[N+]1(C)CCCC1C(=O)[O-]` (stereo not given) [Dimethyl-proline (stachydrine)], 7.9 min. In the case of `O=C(O)CCC(=O)C(=O)O` [2-Oxoglutarate], the LC retention time was 12.9 min. The result for `NC(Cc1cnc[nH]1)C(=O)O` (stereo not given) [Histidine] reads 12 min; that for `O=C(O)C=CC(=O)O` [Fumarate], 13.1 min; that for `CSCCC(N)C(=O)O` (stereo not given) [Methionine], 8.7 min. The result for `CC(=O)NC(CCCN)C(=O)O` (stereo not given) [N-Acetyl-ornithine] reads 11.1 min; that for `Nc1ccn(C2OC(COP(=O)(O)OP(=O)(O)OP(=O)(O)O)C(O)C2O)c(=O)n1` (stereo not given) [CTP], 15.5 min.

Consider `C[N+](C)(C)C(Cc1c[nH]c2ccccc12)C(=O)[O-]` (stereo not given) [Trimethyl-tryptophan (hypaphorine)], for which the LC retention time is 6 min. For `CC(C)(COP(=O)(O)OP(=O)(O)OCC1OC(n2cnc3c(N)ncnc32)C(O)C1OP(=O)(O)O)C(O)C(=O)NCCC(=O)NCCS` (stereo not given) [CoA], the LC retention time is 11.7 min.

As for `O=c1ccn(C2OC(COP(=O)(O)OP(=O)(O)O)C(O)C2O)c(=O)[nH]1` (stereo not given) [UDP], the LC retention time is 14 min. The result for `NC1C(O)OC(CO)C(O)C1O` (stereo not given) [Glucosamine] reads 11.6 min; that for `NC(CC(=O)O)C(=O)O` (stereo not given) [Aspartate], 12.5 min; that for `O=C(O)CC(O)C(=O)O` (stereo not given) [Malate], 13.3 min. With `NC(CCC(=O)NC(CSSCC(NC(=O)CCC(N)C(=O)O)C(=O)NCC(=O)O)C(=O)NCC(=O)O)C(=O)O` (stereo not given) [Glutathione disulfide (GSSG)] the figure was 15 min. With `CC(C)C(N)C(=O)O` (stereo not given) [Valine] the figure was 9.8 min; with `Cn1cnc(CC(N)C(=O)O)c1` (stereo not given) [Methyl-histidine], 10.2 min. As to `CC(O)C(N)C(=O)O` (stereo not given) [Threonine], the LC retention time was 11.7 min. With `O=C(O)CCC(=O)O` [Succinate], the LC retention time was 12.6 min.

In the case of `O=c1[nH]cnc2c1ncn2C1OC(CO)C(O)C1O` (stereo not given) [Inosine], the LC retention time is 8.2 min. With `CCC(NC(=O)CCC(N)C(=O)O)C(=O)NCC(=O)O` (stereo not given) [Ophthalmic acid] the figure was 11.2 min; with `O=C(O)CCCCC1SCC2NC(=O)NC21` (stereo not given) [Biotin], 6.2 min; with `NC(CCC(=O)O)C(=O)O` (stereo not given) [Glutamate], 12.1 min.

As for `Nc1ncnc2c1ncn2C1OC(COP(=O)(O)OP(=O)(O)OP(=O)(O)O)C(O)C1O` (stereo not given) [ATP], the LC retention time is 13.8 min. The result for `CN(C)CCCCC(N)C(=O)O` (stereo not given) [Dimethyl-lysine] reads 19.2 min; that for `NC(Cc1ccc(O)cc1)C(=O)O` (stereo not given) [Tyrosine], 10.3 min; that for `OCC1OC(O)C(O)C(O)C1O` (stereo not given) [Glucose], 12 min. The result for `CN1CC(=O)NC1=N` [Creatinine] reads 6.9 min; that for `O=C(O)CC(O)(CC(=O)O)C(=O)O` [Citrate], 15.5 min; that for `CN(CC(=O)O)C(=N)N` [Creatine], 12.1 min. Regarding `COC(=O)C(N)CCC(=O)O` (stereo not given) [Glutamate methyl ester], the LC retention time is 7.1 min. Take `CCCC(=O)OC(CC(=O)[O-])C[N+](C)(C)C` (stereo not given) [Butyryl-carnitine]: the LC retention time is 6.2 min. The result for `NC(CCCCNC(CCC(=O)O)C(=O)O)C(=O)O` (stereo not given) [Saccharopine] reads 13.3 min; that for `O=C(CO)C(O)C(O)C(O)C(O)COP(=O)(O)O` (stereo not given) [Sedoheptulose-7-phosphate], 13.7 min. With `C[S+](CCC(N)C(=O)[O-])CC1OC(n2cnc3c(N)ncnc32)C(O)C1O` (stereo not given) [S-Adenosyl-methionine] the figure was 14.2 min; with `CC(C)(CO)C(O)C(=O)NCCC(=O)O` (stereo not given) [Pantothenate], 6.1 min; with `NC(=O)CC(N)C(=O)O` (stereo not given) [Asparagine], 12.4 min. The result for `Nc1c(C(=O)NC(CC(=O)O)C(=O)O)ncn1C1OC(COP(=O)(O)O)C(O)C1O` (stereo not given) [SAICAR] reads 17.1 min. As for `CC(C)CC(N)C(=O)O` (stereo not given) [Leucine], the LC retention time was 7.6 min. Take `O=S(=O)(O)Oc1c[nH]c2ccccc12` [Indoxyl-sulfate]: the LC retention time was 4.9 min. With `NC(=O)C1=CN(C2OC(COP(=O)(O)OP(=O)(O)OCC3OC(n4cnc5c(N)ncnc54)C(O)C3O)C(O)C2O)C=CC1` (stereo not given) [NADH] the figure was 11.1 min; with `C[N+](C)(C)CC(O)CC(=O)[O-]` (stereo not given) [Carnitine], 10.9 min; with `NC(=O)c1ncn(C2OC(COP(=O)(O)O)C(O)C2O)c1N` (stereo not given) [AICAR], 12.7 min. With `CN(C)C(N)=NCCCC(N)C(=O)O` (stereo not given) [Dimethyl-arginine] the figure was 20 min; with `C[N+](C)(C)C(Cc1cnc([S-])[nH]1)C(=O)O` (stereo not given) [Ergothioneine], 12.1 min; with `CC(=O)NC(CCC[NH+]=C(N)N)C(=O)[O-]` (stereo not given) [N-Acetyl-arginine], 12.3 min.

Regarding `O=P(O)(O)OCC1OC(O)C(O)C(O)C1O` (stereo not given) [Glucose-6-phosphate], the LC retention time is 14.2 min. As to `O=C(O)c1cccnc1C(=O)O` [Quinolinic acid], the LC retention time was 12.7 min. Take `OCC1OC(OC2OC(CO)C(O)C(O)C2O)C(O)C(O)C1O` (stereo not given) [Trehalose]: the LC retention time was 13.6 min. `C[N+](C)(C)CC(=O)[O-]` [Betaine]: the LC retention time was 8.6 min. On to `C[N+](C)(C)C(Cc1cnc[nH]1)C(=O)[O-]` (stereo not given) [Trimethyl-histidine (hercynine)], for which the LC retention time is 9.7 min. With `NCCCCC(N)C(=O)O` (stereo not given) [Lysine] the figure was 23.3 min.

Consider `O=C(O)C(O)C(O)C(O)C(O)COP(=O)(O)O` (stereo not given) [6-Phosphogluconate], for which the LC retention time was 15 min. The result for `O=C(O)CCCC(=O)O` [Glutarate] reads 12 min; that for `O=C(O)CNC(=O)c1ccccc1` [Hippurate], 4.4 min.

Regarding `CC(O)(CC(=O)O)CC(=O)SCCNC(=O)CCNC(=O)C(O)C(C)(C)COP(=O)(O)OP(=O)(O)OCC1OC(n2cnc3c(N)ncnc32)C(O)C1OP(=O)(O)O` (stereo not given) [HMG-CoA], the LC retention time was 13.2 min.

Turning to `O=c1ccn(C2OC(CO)C(O)C2O)c(=O)[nH]1` (stereo not given) [Uridine], the LC retention time was 7.1 min. As to `NC(=NCCCC(N)C(=O)O)NC(CC(=O)O)C(=O)O` (stereo not given) [Arginino-succinate], the LC retention time was 14.2 min. The result for `Nc1ccn(C2OC(COP(=O)(O)O)C(O)C2O)c(=O)n1` (stereo not given) [CMP] reads 13.2 min; that for `CCC(C)C(N)C(=O)O` (stereo not given) [Isoleucine], 8.6 min.

In the case of `CNCCCCC(N)C(=O)O` (stereo not given) [Methyl-lysine], the LC retention time is 22.1 min. The result for `NC(CCCC(=O)O)C(=O)O` (stereo not given) [2-Aminoadipate] reads 12.2 min; that for `CC(=O)NC1C(OP(=O)(O)OP(=O)(O)OCC2OC(n3ccc(=O)[nH]c3=O)C(O)C2O)OC(CO)C(O)C1O` (stereo not given) [UDP-acetyl-glucosamine], 12.8 min; that for `NC(CO)C(=O)O` (stereo not given) [Serine], 13.1 min. As for `CC(C)CC(=O)OC(CC(=O)[O-])C[N+](C)(C)C` (stereo not given) [Isovaleryl-carnitine], the LC retention time is 5.4 min. For `Cc1cc2nc3c(=O)[nH]c(=O)nc-3n(CC(O)C(O)C(O)COP(=O)(O)OP(=O)(O)OCC3OC(n4cnc5c(N)ncnc54)C(O)C3O)c2cc1C` (stereo not given) [FAD], the LC retention time is 9.4 min.

`C[N+](C)(C)CCOP(=O)([O-])OCC(O)CO` (stereo not given) [Glycerophosphocholine]: the LC retention time is 12.1 min. Consider `Nc1nc2c(ncn2C2OC(COP(=O)(O)OP(=O)(O)OP(=O)(O)O)C(O)C2O)c(=O)[nH]1` (stereo not given) [GTP], for which the LC retention time is 16.4 min. The result for `C=C(OP(=O)(O)O)C(=O)[O-]` [Phosphoenolpyruvate] reads 15.1 min; that for `NC(Cc1c[nH]c2ccccc12)C(=O)O` (stereo not given) [Tryptophan], 8.7 min; that for `CCCCCCCCCC(=O)OC(CC(=O)[O-])C[N+](C)(C)C` (stereo not given) [Decanoyl-carnitine], 4.2 min.

On to `C[N+](C)(C)CCCC(=O)O` [Butyro-betaine], for which the LC retention time was 10.9 min.

Consider `Cn1cnc2c(ncn2C2OC(CO)C(O)C2O)c1=N` (stereo not given) [1-Methyl-adenosine], for which the LC retention time is 11.1 min.

Consider `CC(O)(CC(=O)O)C(=O)O` (stereo not given) [Citramalate], for which the LC retention time is 12.6 min.

For `O=C(O)C1OC(OP(=O)(O)OP(=O)(O)OCC2OC(n3ccc(=O)[nH]c3=O)C(O)C2O)C(O)C(O)C1O` (stereo not given) [UDP-glucuronate], the LC retention time was 16.5 min.

As to `OC1C(O)C(O)C(O)C(O)C1O` (stereo not given) [myo-Inositol], the LC retention time is 14.4 min. For `CCCCCC(=O)OC(CC(=O)[O-])C[N+](C)(C)C` (stereo not given) [Hexanoyl-carnitine], the LC retention time was 4.8 min. The result for `O=c1ccn(C2OC(COP(=O)(O)OP(=O)(O)OP(=O)(O)O)C(O)C2O)c(=O)[nH]1` (stereo not given) [UTP] reads 15.1 min. Take `Nc1nc2c(ncn2C2OC(CO)C(O)C2O)c(=O)[nH]1` (stereo not given) [Guanosine]: the LC retention time is 9.8 min.
